In patent publication US20180265515A1 (Genentech, Inc., priority 2015, published 2018):

What was measured:
[1] = biological target: T1, isolated recombinant JAK2 kinase domain (Homo sapiens, UniProt O60674); test: JAK2 enzyme assay (Caliper LabChip, Ki); assay type: biochemical; details: 25 μM ATP
T1 construct: The activity of the isolated recombinant JAK1 and JAK2 kinase domain was measured
In short: (§1)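 Recombinant JAK1 or JAK2 kinase domain phosphorylating a 5-carboxyfluorescein-labelled JAK3-derived peptide, 30 min at 22° C, stopped with EDTA. Phosphorylated fraction of substrate quantified by Caliper LabChip microfluidic separation. Ki from Morrison tight-binding model corrected for ATP competition (Ki=Ki,app/(1+[ATP]/Km,app)).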

[2] = biological target: T2, isolated recombinant JAK1 kinase domain (Homo sapiens, UniProt P23458); test: JAK1 enzyme assay (Caliper LabChip, Ki); assay type: biochemical; details: recombinant JAK1 kinase domain, 25 μM ATP
T2 construct: The activity of the isolated recombinant JAK1 and JAK2 kinase domain was measured
In short: as §1

[3] = system: JAK1-dependent STAT6 phosphorylation downstream of IL-13 stimulation in BEAS-2B human bronchial epithelial cells; test: JAK1 pathway assay in BEAS-2B cells (IL-13 stimulated STAT6 phosphorylation, MSD); assay type: cell-based; details: read-out: P-STAT6 BEAS2B + IL13 IC50
In short: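 BEAS-2B human bronchial epithelial cells, plated the day before in complete growth medium, were preincubated with compound for 1 hr at 37° C (0.2% DMSO final), then stimulated with IL-13 at its EC90 for 15 min. STAT6 phosphorylation in lysates was read by MSD; EC50 was taken as 50% inhibition versus DMSO control.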

T2 sequence (P23458 875-1153 limits assumed): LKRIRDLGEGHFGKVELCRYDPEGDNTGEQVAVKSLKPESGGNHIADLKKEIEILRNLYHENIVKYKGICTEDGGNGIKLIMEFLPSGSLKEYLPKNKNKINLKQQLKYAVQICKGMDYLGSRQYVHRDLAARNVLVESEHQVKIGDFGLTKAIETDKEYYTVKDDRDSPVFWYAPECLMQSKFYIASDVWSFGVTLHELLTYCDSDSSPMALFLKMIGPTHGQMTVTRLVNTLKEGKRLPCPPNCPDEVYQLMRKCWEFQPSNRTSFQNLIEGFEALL
T1 sequence (O60674 849-1124 limits assumed): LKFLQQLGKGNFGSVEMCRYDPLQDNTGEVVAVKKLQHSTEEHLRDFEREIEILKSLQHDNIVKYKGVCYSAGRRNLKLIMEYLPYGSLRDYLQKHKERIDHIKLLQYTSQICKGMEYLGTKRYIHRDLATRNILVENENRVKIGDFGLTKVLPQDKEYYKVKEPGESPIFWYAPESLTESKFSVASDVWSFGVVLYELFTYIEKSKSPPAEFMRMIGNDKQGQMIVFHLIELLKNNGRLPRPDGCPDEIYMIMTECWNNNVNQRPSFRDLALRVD

Row | Ki [1] | Ki [2] | SMILES | IC50 [3]
1 | 1.5 nM | 0.55 nM | CN1CCN(C2CCN(C(=O)Cn3cc(NC(=O)c4cnn5cccnc45)c(-c4cc(SC5CC5)ccc4OC(F)F)n3)CC2)CC1 [Example 164, N-[3-[5-cyclopropylsulfanyl-2-(difluoromethoxy)phenyl]-1-[2-[4-(4-methylpiperazin-1-yl)-1-piperidyl]-2-oxo-ethyl]pyrazol-4-yl]pyrazolo[1,5-a]pyrimidine-3-carboxamide] | 32 nM
2 | 0.67 nM | 0.4 nM | O=C(Nc1cn(CC(=O)N2CCN(CC3CCOCC3)CC2)nc1-c1cc(SC2CC2)ccc1OC(F)F)c1cnn2cccnc12 [Example 165, N-[3-[5-cyclopropylsulfanyl-2-(difluoromethoxy)phenyl]-1-[2-oxo-2-[4-(tetrahydropyran-4-ylmethyl)piperazin-1-yl]ethyl]pyrazol-4-yl]pyrazolo[1,5-a]pyrimidine-3-carboxamide] | 20 nM
3 | 0.72 nM | 0.29 nM | N#CC1(CNC2CCN(C(=O)Cn3cc(NC(=O)c4cnn5cccnc45)c(-c4cc(SC5CC5)ccc4OC(F)F)n3)CC2)CC1 [Example 166, N-[1-[2-[4-[(1-cyanocyclopropyl)methylamino]-1-piperidyl]-2-oxo-ethyl]-3-[5-cyclopropylsulfanyl-2-(difluoromethoxy)phenyl]pyraxol-4-yl]pyrazolo[1,5-a]pyrimidine-3-carboxamide] | 17 nM
4 | 0.67 nM | 0.28 nM | CC(C)(C#N)CNC1CCN(C(=O)Cn2cc(NC(=O)c3cnn4cccnc34)c(-c3cc(SC4CC4)ccc3OC(F)F)n2)CC1 [Example 167, N-[1-(2-[4-[(2-cyano-2,2-dimethylethyl)amino]piperidin-1-yl]-2-oxoethyl)-3-[5-(cyclopropylsulfanyl)-2-(difluoromethoxy)phenyl]-1H-pyrazol-4-yl]pyrazolo[1,5-a]pyrimidine-3-carboxamide] | 11 nM
5 | 0.46 nM | 0.29 nM | O=C(Nc1cn(CC(=O)N2CCN(C3CCOCC3)CC2)nc1-c1cc(SC2CC2)ccc1OC(F)F)c1cnn2cccnc12 [Example 168, N-[3-[5-cyclopropylsulfanyl-2-(difluoromethoxy)phenyl]-1-[2-oxo-2-(4-tetrahydropyran-4-ylpiperazin-1-yl)ethyl]pyrazol-4-yl]pyrazolo[1,5-a]pyrimidine-3-carboxamide] | 14 nM
6 | 0.8 nM | 0.43 nM | CC(F)(F)CNC1CCN(C(=O)Cn2cc(NC(=O)c3cnn4cccnc34)c(-c3cc(SC4CC4)ccc3OC(F)F)n2)CC1 [Example 169, N-[3-[5-cyclopropylsulfanyl-2-(difluoromethoxy)phenyl]-1-[2-[4-(2,2-difluoropropylamino)-1-piperidyl]-2-oxo-ethyl]pyrazol-4-yl]pyrazolo[1,5-a]pyrimidine-3-carboxamide] | 20 nM
7 | 0.78 nM | 0.39 nM | CN(C)C(=O)CN1CCN(CC2CCN(C(=O)Cn3cc(NC(=O)c4cnn5cccnc45)c(-c4cc(SC5CC5)ccc4OC(F)F)n3)CC2)CC1 [Example 170, N-[3-[5-cyclopropylsulfanyl-2-(difluoromethoxy)phenyl]-1-[2-[4-[[4-[2-(dimethylamino)-2-oxo-ethyl]piperazin-1-yl]methyl]-1-piperidyl]-2-oxo-ethyl]pyrazol-4-yl]pyrazolo[1,5-a]pyrimidine-3-carboxamide] | 25 nM
8 | 0.78 nM | 0.43 nM | CN(C1CCN(C(=O)Cn2cc(NC(=O)c3cnn4cccnc34)c(-c3cc(SC4CC4)ccc3OC(F)F)n2)CC1)C1COC1 [Example 171, N-[3-[5-cyclopropylsulfanyl-2-(difluoromethoxy)phenyl]-1-[2-[4-[methyl(oxetan-3-yl)amino]-1-piperidyl]-2-oxo-ethyl]pyrazol-4-yl]pyraxolo[1,5-a]pyrimidine-3-carboxamide] | 22 nM
9 | 0.91 nM | 0.45 nM | CC(=O)N1CCN(CC2CCN(C(=O)Cn3cc(NC(=O)c4cnn5cccnc45)c(-c4cc(SC5CC5)ccc4OC(F)F)n3)CC2)CC1 [Example 172, N-[1-[2-[4-[(4-acetylpiperazin-1-yl)methyl]-1-piperidyl]-2-oxo-ethyl]-3-[5-cyclopropylsulfanyl-2-(difluoromethoxy)phenyl]pyrazol-4-yl]pyrazolo[1,5-a]pyrimidine-3-carboxamide] | 32 nM
10 | 0.83 nM | 0.33 nM | COC(=O)N1CCN(CC2CCN(C(=O)Cn3cc(NC(=O)c4cnn5cccnc45)c(-c4cc(SC5CC5)ccc4OC(F)F)n3)CC2)CC1 [Example 173, methyl 4-[[1-[2-[3-[5-cyclopropylsulfanyl-2-(difluoromethoxy)phenyl]-4-(pyrazolo[1,5-a]pyrimidine-3-carbonylamino)pyrazol-1-yl]acetyl]-4-piperidyl]methyl]piperazine-1-carboxylate] | 17 nM
11 | 0.21 nM | 0.27 nM | O=C(Nc1cn(Cc2cn(C3CCN(C4COC4)CC3)nn2)nc1-c1cc(SC2CC2)ccc1OC(F)F)c1cnn2cccnc12 [Example 174, N-[3-[5-cyclopropylsulfanyl-2-(difluoromethoxy)phenyl]-1-[[1-[1-(oxetan-3-yl)-4-piperidyl]triazol-4-yl]methyl]pyrazol-4-yl]pyrazolo[1,5-a]pyrimidine-3-carboxamide] | 11 nM
12 | 0.11 nM | 0.23 nM | O=C(Nc1c[nH]nc1-c1cc(SC2COC2)ccc1OC(F)F)c1cnn2cccnc12 [Example 175, N-[3-[2-(difluoromethoxy)-5-(oxetan-3-ylsulfanyl)phenyl]-1H-pyrazol-4-yl]pyrazolo[1,5-a]pyrimidine-3-carboxamide] | 9.5 nM
13 | 1.4 nM | 0.38 nM | CN1CCC[C@@H]1Cn1cc(NC(=O)c2cnn3cccnc23)c(-c2cc(SC3COC3)ccc2OC(F)F)n1 [Example 176, N-[3-[2-(difluoromethoxy)-5-(oxetan-3-ylsulfanyl)phenyl]-1-[[(2R)-1-methylpyrrolidin-2-yl]methyl]pyrazol-4-yl]pyrazolo[1,5-a]pyrimidine-3-carboxamide] | 28 nM
14 | 0.48 nM | 0.81 nM | O=C(Nc1cn(CCN[C@@H]2CCOC2)nc1-c1cc(SC2COC2)ccc1OC(F)F)c1cnn2cccnc12 [Example 177, N-[3-[2-(difluoromethoxy)-5-(oxetan-3-ylsulfanyl)phenyl]-1-[2-[[(3R)-tetrahydrofuran-3-yl]amino]ethyl]pyrazol-4-yl]pyrazolo[1,5-a]pyrimidine-3-carboxamide] | 18 nM
15 | 0.64 nM | 0.36 nM | CNCCn1cc(NC(=O)c2cnn3cccnc23)c(-c2cc(SC3COC3)ccc2OC(F)F)n1 [Example 178, N-[3-[2-(difluoromethoxy)-5-(oxetan-3-ylsulfanyl)phenyl]-1-[2-(methylamino)ethyl]pyrazol-4-yl]pyrazolo[1,5-a]pyrimidine-3-carboxamide] | 9 nM
16 | 0.59 nM | 0.74 nM | O=C(Nc1cn(CCN[C@H]2C[C@H](O)C2)nc1-c1cc(SC2COC2)ccc1OC(F)F)c1cnn2cccnc12 [Example 179, N-[3-[2-(difluoromethoxy)-5-(oxetan-3-ylsulfanyl)phenyl]-1-(2-[[trans-3-hydroxycyclobutyl]amino]ethyl)-1H-pyrazol-4-yl]pyrazolo[1,5-a]pyrimidine-3-carboxamide] | 26 nM
17 | 0.76 nM | 1 nM | O=C(Nc1cn(CCN[C@@H]2CCCOC2)nc1-c1cc(SC2COC2)ccc1OC(F)F)c1cnn2cccnc12 [Example 180, N-[3-[2-(difluoromethoxy)-5-(oxetan-3-ylsulfanyl)phenyl]-1-[2-[[(3R)-tetrahydropyran-3-yl]amino]ethyl]pyrazol-4-yl]pyrazolo[1,5-a]pyrimidine-3-carboxamide] | 14 nM
18 | 1.8 nM | 0.8 nM | CCN1CCN(C(=O)Cn2cc(NC(=O)c3cnn4cccnc34)c(-c3cc(SC4COC4)ccc3OC(F)F)n2)CC1 [Example 181, N-[3-[2-(difluoromethoxy)-5-(oxetan-3-ylsulfanyl)phenyl]-1-[2-(4-ethylpiperazin-1-yl)-2-oxo-ethyl]pyrazol-4-yl]pyrazolo[1,5-a]pyrimidine-3-carboxamide] | 83 nM
19 | 1.9 nM | 0.92 nM | O=C(Nc1cn(CC(=O)N2CCC(N3CCOCC3)CC2)nc1-c1cc(SC2COC2)ccc1OC(F)F)c1cnn2cccnc12 [Example 182, N-[3-[2-(difluoromethoxy)-5-(oxetan-3-ylsulfanyl)phenyl]-1-[2-(4-morpholino-1-piperidyl)-2-oxo-ethyl]pyrazol-4-yl]pyrazolo[1,5-a]pyrimidine-3-carboxamide] | 91 nM
20 | 1.5 nM | 0.65 nM | O=C(Nc1cn(CC(=O)N2CCC(CN3CCOCC3)CC2)nc1-c1cc(SC2COC2)ccc1OC(F)F)c1cnn2cccnc12 [Example 183, N-[3-[2-(difluoromethoxy)-5-(oxetan-3-ylsulfanyl)phenyl]-1-[2-[4-(morpholinomethyl)-1-piperidyl]-2-oxo-ethyl]pyrazol-4-yl]pyrazolo[1,5-a]pyrimidine-3-carboxamide] | 33 nM
